From article PMC3447753, “Relacin, a Novel Antibacterial Agent Targeting the Stringent Response” (PLoS Pathogens, 2012) come the findings set out here.

The target in this assay is T1, Rel/Spo (D. radiodurans) (Deinococcus radiodurans, UniProt Q9RTC7).
T1 construct: gene DR_1838; full length, His-tagged (anti-His detection), expressed in E. coli BL21 CodonPlus
T1 sequence (Q9RTC7 1-787): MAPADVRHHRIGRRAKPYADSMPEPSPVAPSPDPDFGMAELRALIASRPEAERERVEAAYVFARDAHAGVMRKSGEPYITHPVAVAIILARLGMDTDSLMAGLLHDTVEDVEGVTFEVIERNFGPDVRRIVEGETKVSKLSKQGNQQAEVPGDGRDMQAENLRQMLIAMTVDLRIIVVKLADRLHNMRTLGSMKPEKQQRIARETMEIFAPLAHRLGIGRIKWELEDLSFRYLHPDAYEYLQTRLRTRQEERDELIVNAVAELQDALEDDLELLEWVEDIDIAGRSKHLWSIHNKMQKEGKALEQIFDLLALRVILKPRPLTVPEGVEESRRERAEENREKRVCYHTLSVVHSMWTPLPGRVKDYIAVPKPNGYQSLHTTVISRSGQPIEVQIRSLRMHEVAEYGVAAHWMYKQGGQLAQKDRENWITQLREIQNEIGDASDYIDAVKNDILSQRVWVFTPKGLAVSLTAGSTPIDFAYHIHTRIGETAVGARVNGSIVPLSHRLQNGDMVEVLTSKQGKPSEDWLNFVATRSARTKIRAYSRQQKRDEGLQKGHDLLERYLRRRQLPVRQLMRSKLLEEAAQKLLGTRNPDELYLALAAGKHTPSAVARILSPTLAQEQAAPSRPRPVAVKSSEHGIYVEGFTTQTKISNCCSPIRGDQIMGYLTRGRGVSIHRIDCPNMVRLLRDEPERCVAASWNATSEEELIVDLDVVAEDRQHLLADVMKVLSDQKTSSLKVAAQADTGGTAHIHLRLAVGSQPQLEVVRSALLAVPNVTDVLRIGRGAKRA
The experiment in a line: (p)ppGpp synthesis from alpha-32P-GTP, PEI-TLC autoradiography. Format: biochemical. The following applies: 0.5 mM GTP, 4 mM ATP, 10 mM MgCl2, pH 7.4, isolated ribosomes; inhibitor concentration only in figure.

`CC(C)C(=O)Nc1nc2c(ncn2[C@H]2C[C@H](OC(=O)NCC(=O)NCC(=O)O)[C@@H](COC(=O)NCC(=O)NCC(=O)O)O2)c(=O)[nH]1` [Relacin]: the “% inhibition at highest Relacin concentration” value is given as ~ 80%.
